Assay [1] deals with E faecalis ATCC 29212. The assay can be described thus: MBC assay. The format is cell-based. The conditions noted are these: Enterococcus faecalis, ATCC29212. From the text: (§1) 3. Enterococcus faecalis ATCC 29212—this is a Gram-positive bacterium belonging to the genus Enterococcus. Enterococci have similar properties to streptococci, but differ in their ability to grow on bile-salt containing media such as MacConkey's Agar. Their principal habitat is the mammalian gastrointestinal tract. They cause a number of important infections including endocarditis, urinary tract infections and abscesses. In the context of skin, they are frequently isolated from wound infections. Unlike the streptococci, the enterococci have developed widespread resistance to penicillin. More recently, E. faecalis and E. faecium strains have also developed resistance to the glycopeptide antibiotics such as vancomycin. Vancomycin-Resistant Enterococci (VRE), principally vanA strains of E. faecium, now represent a serious healthcare-acquired infection hazard in the USA, Japan and Western Europe.
(§2) The staphylococci and enterococci were cultured and maintained on Mueller-Hinton Medium (agar and broth) at pH 7.2; they were incubated aerobically at 37° C. for 24 hours.
This assay, normally carried out after an MIC assay, determines the minimum concentration of a compound that is lethal to the micro-organism being tested.
These samples were then individually sub-cultured on non-selective agar medium, under the incubation conditions described above. […]

Another assay concerns P. acnes PRP-053. The assay can be described thus: MIC assay. Conditions: Cutibacterium acnes, PRP053; P. acnes PRP-053 (resistance Tet/MLS). The format is cell-based, Propionibacterium acnes. How it is done:
(§3) Other propionibacterial strains were also tested, as described in Example 8 below. These included certain antibiotic resistant propionibacteria, such as the two P. acnes strains PRP-010 and PRP-053 which are resistant respectively to macrolides-lincosamides-streptogramins-ketolides (MLSK) and to macrolides-lincosamides-streptogramins (MLS) and tetracycline—in other words, PRP-010 is resistant to erythromycin and clindamycin, and […] to erythromycin, clindamycin and tetracycline.
(§4) The Propionibacterium spp organisms were cultured and maintained on Wilkins-Chalgren Anaerobe Medium (agar and broth) at pH 6.0; cultures were incubated anaerobically at 37° C. for 72 hours.
(§5) This is a standard international method for quantitatively assessing the antimicrobial activity of a compound in a liquid medium. The method used a 96-well microtitre plate, capable of holding about 200 μl of liquid per well. […] The culture media were as described above for the relevant test organisms.
(§6) The wells were inoculated with a liquid suspension of freshly grown micro-organism and incubated under the conditions described above. After incubation, the microtitre plate was examined visually (with the aid of a light box) for cell pellets in and/or opaque wells, which would indicate microbial growth. The MIC value was recorded as the lowest concentration of test compound required to inhibit microbial growth, ie, the lowest concentration for which the liquid in the well remained clear.
(§7) The assays were conducted in duplicate and included both negative (culture medium only) and positive (culture medium, diluting solvent and inoculum) controls.

For a further assay, the system named is P. acnes PRP-010. The assay can be described thus: MIC assay. Type of assay: cell-based, Propionibacterium acnes. The conditions noted are these: Cutibacterium acnes, PRP010; P. acnes PRP-010 (resistance MLSK). How it is done: as §3, §4, §5, §6, §7
For assay [2], the system named is S. aureus CPHL GISA HO41340156. The assay is described as follows: Disc diffusion assay (DDA). Type of assay: cell-based, Staphylococcus aureus. The conditions noted are these: zone diameter, 200 μg per disc. How it is done: as §2
(§8) A sterile paper disc was impregnated with a sample of the test compound and a minimum of 30 minutes allowed for the solvents to evaporate as far as possible. The disc was then placed on an agar plate onto which the test micro-organism had been inoculated. The plate was then incubated under the conditions described above, following which it was examined visually for signs of bacterial growth. If the test compound had antimicrobial activity, a circular zone of no growth would be obtained around the disc. The diameter of this zone of “inhibition” was measured using a ProtoCOL™ automated zone sizer (Synbiosis, Cambridge, UK). In general, a greater diameter and/or area of the zone of inhibition indicates a greater antimicrobial activity in the relevant test compound, although other factors such as test compound mobility through the agar gel may also influence the result.
(§9) The area of the zone of inhibition was calculated from the measured zone diameter (D) using the formula π(D/2)^2.
(In agar diffusion tests the substance spreads into inoculated agar from a disc or well.)

The subject of another assay is S. aureus ATCC 12607. The assay can be described thus: Disc diffusion assay (DDA). The conditions noted are these: zone diameter, 200 μg per disc. The format is cell-based, Staphylococcus aureus. On the procedure:
as §2, §8, §9

For the next assay, the system named is S. aureus ATCC 12600-U. The assay can be described thus: Disc diffusion assay (DDA). Type of assay: cell-based, Staphylococcus aureus. Conditions: zone diameter, 200 μg per disc. How it is done: as §2, §8, §9
Another assay relates to S. aureus ATCC 12605. The assay can be described thus: Disc diffusion assay (DDA). Type of assay: cell-based, Staphylococcus aureus. The conditions noted are these: zone diameter, 200 μg per disc. How it is done:
as §2, §8, §9

A further assay has as its system P. acnes PRP-004. The assay is described as follows: Disc diffusion assay (DDA). The format is cell-based, Propionibacterium acnes. Conditions: zone diameter, 200 μg per disc. On the procedure:
as §4, §8, §9

The next assay concerns P. acnes PRP-046. The assay can be described thus: Disc diffusion assay (DDA). The conditions noted are these: zone diameter, 200 μg per disc. The format is cell-based, Propionibacterium acnes. On the procedure:
as §4, §8, §9

The test system of another assay is P. acnes PRP-003. The assay is described as follows: Disc diffusion assay (DDA). Type of assay: cell-based, Propionibacterium acnes. Conditions: zone diameter, 200 μg per disc. How it is done:
as §4, §8, §9

The subject of the next assay is P. acnes PRP-102. The assay is described as follows: Disc diffusion assay (DDA). Type of assay: cell-based, Propionibacterium acnes. The conditions noted are these: zone diameter, 200 μg per disc. On the procedure:
as §4, §8, §9

Another assay concerns P. acnes PRP-007. The assay can be described thus: Disc diffusion assay (DDA). The format is cell-based, Propionibacterium acnes. Conditions: zone diameter, 200 μg per disc. How it is done:
as §4, §8, §9

The subject of the next assay is P. acnes PRP-017. The assay can be described thus: Disc diffusion assay (DDA). The format is cell-based, Propionibacterium acnes. Conditions: zone diameter, 200 μg per disc. On the procedure: as §4, §8, §9
The subject of the next assay is P. acnes PRP-023. The assay is described as follows: Disc diffusion assay (DDA). Conditions: zone diameter, 200 μg per disc. The format is cell-based, Propionibacterium acnes. On the procedure:
as §4, §8, §9

A further assay concerns P. acnes PRP-002. The assay is described as follows: Disc diffusion assay (DDA). Type of assay: cell-based, Propionibacterium acnes. Conditions: zone diameter, 200 μg per disc. On the procedure: as §4, §8, §9
Another assay deals with P. acnes PRP-008. The assay is described as follows: Disc diffusion assay (DDA). The format is cell-based, Propionibacterium acnes. Conditions: zone diameter, 200 μg per disc. How it is done: as §4, §8, §9
A further assay has as its system P. acnes PRP-068. The assay can be described thus: Disc diffusion assay (DDA). The format is cell-based, Propionibacterium acnes. The conditions noted are these: zone diameter, 200 μg per disc. How it is done: as §4, §8, §9
The test system of a further assay is P. acnes PRP-101. The assay can be described thus: Disc diffusion assay (DDA). Type of assay: cell-based, Propionibacterium acnes. Conditions: zone diameter, 200 μg per disc. On the procedure: as §4, §8, §9
The subject of another assay is P. acnes PRP-026. The assay is described as follows: Disc diffusion assay (DDA). The conditions noted are these: zone diameter, 200 μg per disc. Type of assay: cell-based, Propionibacterium acnes. How it is done:
as §4, §8, §9

The next assay relates to P. acnes PRP-059. The assay is described as follows: Disc diffusion assay (DDA). Type of assay: cell-based, Propionibacterium acnes. The conditions noted are these: zone diameter, 200 μg per disc. On the procedure:
as §4, §8, §9

For assay [3], the system named is E faecalis ATCC 29212. The assay can be described thus: Disc diffusion assay (DDA). The format is cell-based, Enterococcus faecalis. The conditions noted are these: zone diameter, 200 μg per disc.
Text: as §1, with “Europe. […]” for “Europe.”
A sterile paper disc was impregnated with a sample of the test compound and a minimum of 30 minutes allowed for the solvents to evaporate as far as possible. […] The diameter of this zone of “inhibition” was measured using a ProtoCOL™ automated zone sizer (Synbiosis, Cambridge, UK). […]
The area of the zone of inhibition was calculated from the measured zone diameter (D) using the formula π(D/2)^2. […]

Converted amounts (≈) assume the structure as drawn. Like-named read-outs stand apart in the source and are kept apart here.

For the compound `CC(C)(C)c1cc(O)ccc1O` [TBHQ, t-butyl hydroquinone], the MBC – broadly, the smallest concentration meeting the test's criterion for killing – in the assay on E faecalis ATCC 29212 [1] worked out at 31.2 µg/mL. In addition, the MIC in the assay with P. acnes PRP-053 and against P. acnes PRP-010 was 3.9 µg/mL (≈ 23.5 µM) in each case. Further, the DDA in assay [2] is 75.37 mm; with S. aureus ATCC 12607, 54.50 mm; in the assay on S. aureus ATCC 12600-U it was 51.24 mm; in the assay with S. aureus ATCC 12605, 59.55 mm; in the assay with P. acnes PRP-004 it was 30.32 (±1.97) mm; in the assay on P. acnes PRP-046, 17.46 (±1.58) mm. For the same compound, the DDA in the assay with P. acnes PRP-003 is 38.01 (±1.02) mm; in the assay on P. acnes PRP-102, 23.80 (±0.10) mm; in the assay on P. acnes PRP-007, 13.43 (±2.49) mm; in the assay with P. acnes PRP-017, 18.40 (±1.08) mm; in the assay on P. acnes PRP-023, 23.90 (±0.00) mm; in the assay on P. acnes PRP-002, 28.42 (±0.95) mm. Besides, the DDA in the assay on P. acnes PRP-008 was 14.47 (±0.90) mm; in the assay on P. acnes PRP-068, 20.89 (±1.08) mm; in the assay with P. acnes PRP-101, 0.0 (±0.00) mm; with P. acnes PRP-026, 8.18 (±0.72) mm; in the assay on P. acnes PRP-059, 17.56 (±0.72) mm; in the assay with E faecalis ATCC 29212 [3] it was 33.67 mm.
`O=C(OOC(=O)c1ccccc1)c1ccccc1` [benzoyl peroxide]: in the assay on E faecalis ATCC 29212 [1] (E faecalis ATCC 29212, read-out: MBC), the minimum bactericidal concentration (MBC) is more than 250 µg/mL. In addition, the MIC in the assay on P. acnes PRP-053 and in the assay on P. acnes PRP-010 was 31.2 µg/mL (≈ 129 µM) in each case. Also, the DDA in [2] was 12.16 mm; in the assay on S. aureus ATCC 12607, 12.31 mm; in the assay on S. aureus ATCC 12600-U, 12.20 mm; in the assay on S. aureus ATCC 12605, 12.20 mm; with P. acnes PRP-004, 31.17 (±1.02) mm; in the assay on P. acnes PRP-046, 24.36 (±0.36) mm. Besides, the DDA with P. acnes PRP-003 is recorded as 25.69 (±0.66) mm; with P. acnes PRP-102 it was 29.62 (±1.12) mm; in the assay with P. acnes PRP-007, 23.88 (±1.42) mm; in the assay on P. acnes PRP-017, 23.28 (±0.48) mm; in the assay with P. acnes PRP-023 it was 24.11 (±0.65) mm; with P. acnes PRP-002, 25.69 (±0.66) mm. Further, the DDA is 27.80 (±1.29) mm with P. acnes PRP-008; 28.79 (±0.95) mm in the assay with P. acnes PRP-068; 25.73 (±1.99) mm in the assay with P. acnes PRP-101; 26.52 (±0.65) mm in the assay with P. acnes PRP-026; 23.49 (±0.48) mm in the assay with P. acnes PRP-059; 0.0 mm in the assay on E faecalis ATCC 29212 [3].

The record behind these values is patent publication US20080262097A1, “Formulations” (priority 2005, published 2008).
